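Tested at 5 concentrations; 48 h exposure; 96-well plates; endpoints linearly interpolated, else capped at highest concentration. GI50: concentration for 50% inhibition of growth.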 Calls of active or inactive are those of the source. Cut-off read from the data, not from the text of the source: active = GI50 up to about 1.1 µM and inactive = higher.
Key:
Experiment in all cases: growth of human tumour cells (NCI), 48 h
[1] = test system: BT-549
[2] = test system: MDA-N
[3] = test system: DU-145
[4] = test system: T47D
[5] = test system: PC-3
[6] = test system: MDA-MB-435
[7] = test system: Hs-578T
[8] = test system: RXF 631

Measured: GI50

COC(=O)C1=C(OC(=O)/C(=C/c2ccc(Cl)cc2)c2ccc(Cl)cc2)C(C(=O)OC)[C@]2(O)[C@@H](C(=O)OC)[C@H]1C[C@@H](c1ccccc1)[C@@H]2C(=O)OC (stereo not given in full)
inactive: [1] 90.4 µM | [2] > 100 µM | [3] > 100 µM | [4] > 100 µM | [5] 62.5 µM | [6] > 100 µM

O=C1C=CC[C@H]2O[C@@H](COC(=O)Cc3ccccc3)C[C@H]2O1
inactive: [7] 26.2 µM | [2] 41 µM | [3] 88.9 µM | [4] 58.1 µM | [5] 35.2 µM | [6] 40.5 µM

COc1cc(CCN(C)C)cc(OC)c1OC
inactive: [7] > 100 µM | [1] > 100 µM | [2] > 100 µM | [3] > 100 µM | [4] > 100 µM | [5] > 100 µM | [6] > 100 µM

O=C1c2cccc3c2C(=O)c2c(cccc21)OCCOCCOCCOCCO3
inactive: [8] 91.6 µM
